Literature values in US20130337047A1, “COMPOSITIONS FOR TREATING ORAL AND PERIODONTAL INFECTIONS” (ZarzaTech, Inc., priority 2012, published 2013).
Structures can show the parent of a compound that is named as a salt.

Key:
crevicular neutrophils = conditions: humans, topical 0.5% oral rinse

| Compound | Anti-gingivitis activity (gingivitis; dose response study, dog gingivitis model) | Prevention of gingivitis (gingivitis; prevention study, same dog model) | Antiplaque activity and tooth stain (gingivitis; dog gingivitis model) | Gingival inflammation and gingival bleeding (gingivitis; dog gingivitis model) | Gingivitis (gingivitis; dog gingivitis model) | Antibacterial function of crevicular neutrophils (crevicular neutrophils) | Clinical gingivitis benefit (crevicular neutrophils) |
| --- | --- | --- | --- | --- | --- | --- | --- |
| CN/C(=N/CCSCc1nc[nH]c1C)NC#N [cimetidine HCL] | significant anti-gingivitis activity that increased with increasing dose | not conclusive | – | – | – | – | – |
| CN/C(=N/CCSCc1nc[nH]c1C)NC#N [cimetidine] | – | – | no antiplaque activity or increase in tooth stain | significantly reduced | reduced gingivitis | enhanced | no clinical gingivitis benefit |
